Source: patent US7034018B2, “Substituted pyrrole mannich bases to combat pain and allergic reactions” (Gruenenthal GmbH, priority 1999, dated 2006)
Each block holds one molecule with its values, some of them ahead of it.

What was measured:
[1] = test system: phenylquinone-induced writhing in mice; test: Analgesia test in the phenylquinone-induced writhing test in mice; format: in vivo; details: male NMRI mice; standard dose of 10 mg/kg, intravenous, 10 minutes before phenylquinone i.p.
Experimental: The in-depth investigation for analgesic activity was carried out in the phenylquinone-induced writhing in mice (modified by I. C. Hendershot, J. Forsaith, J. Pharmacol. Exp. Ther. 125, 237-240 (1959)). Male NMRI mice weighing 25-30 g were used for this. Groups of 10 animals per substance dose received 0.3 ml/mouse of a 0.02% aqueous solution of phenylquinone (phenylbenzoquinone, Sigma, Deisenhofen; preparation of the solution with the addition of 5% ethanol and storage in a water bath at 45° C.) administered intraperitoneally 10 minutes after intravenous administration of the test substances. The animals were placed individually in observation cages. The number of pain-induced stretching movements (so-called writhing reactions=straightening of the body with stretching of the hind extremities) were counted by means of a push-button counter for 5-20 minutes after the administration of phenylquinone. Animals which received only physiological saline solution were also run as a control.
The substances were tested in the standard dose of 10 mg/kg. The inhibition of the writhing reactions by a substance was calculated according to the following equation: [formula]

5-HT transporter = target: T1, 5-HT transporter (Rattus norvegicus, UniProt P31652); test: Inhibition of serotonin re-uptake (5-HT uptake inhibition) in rat brain synaptosomes; format: biochemical; design: concentration or dose not given beside the values; details: synaptosomes (P2 fraction) from pons and medulla oblongata region of male rat brain; means from 2 parallel experiments
T1 construct: these vesicular particles were isolated from the pons and medulla oblongata region of the male rat brain; from tissue; host or cells: rat brain synaptosomes (P2 fraction) from the pons and medulla oblongata of male rats
Experimental: The investigations of the inhibition of serotonin re-uptake (5-HT uptake inhibition) were carried out by the methods such as are described in M. Ch. Frink, H.-H.-Hennies, W. Englberger, M. Haurand and B. Wilffert, Arzneim.-Forsch./Drug. Res. 46 (III), 11, 1996, pages 1029-1036. They are introduced herewith as reference and thus form part of the disclosure.
To carry out these investigations, synaptosomes were freshly isolated from rat brain areas. In each case the so-called “P2” fraction was used, which was prepared according to the instructions in E. G. Gray and V. P. Whittaker, J. Anat. 76, pages 79-88, 1962. This literature is introduced herewith as reference and thus forms part of the disclosure. For determination of the 5-HT uptake, these vesicular particles were isolated from the pons and medulla oblongata region of the male rat brain.
The following characteristic data were determined for the 5-HT transporter: • 5-HT uptake: Km=0.084±0.011 μM • Vmax: 38.13±4.52 pmol/min/mg protein. The results of the investigations are in each case stated as means from 2 parallel experiments.

T1 sequence (P31652 whole entry): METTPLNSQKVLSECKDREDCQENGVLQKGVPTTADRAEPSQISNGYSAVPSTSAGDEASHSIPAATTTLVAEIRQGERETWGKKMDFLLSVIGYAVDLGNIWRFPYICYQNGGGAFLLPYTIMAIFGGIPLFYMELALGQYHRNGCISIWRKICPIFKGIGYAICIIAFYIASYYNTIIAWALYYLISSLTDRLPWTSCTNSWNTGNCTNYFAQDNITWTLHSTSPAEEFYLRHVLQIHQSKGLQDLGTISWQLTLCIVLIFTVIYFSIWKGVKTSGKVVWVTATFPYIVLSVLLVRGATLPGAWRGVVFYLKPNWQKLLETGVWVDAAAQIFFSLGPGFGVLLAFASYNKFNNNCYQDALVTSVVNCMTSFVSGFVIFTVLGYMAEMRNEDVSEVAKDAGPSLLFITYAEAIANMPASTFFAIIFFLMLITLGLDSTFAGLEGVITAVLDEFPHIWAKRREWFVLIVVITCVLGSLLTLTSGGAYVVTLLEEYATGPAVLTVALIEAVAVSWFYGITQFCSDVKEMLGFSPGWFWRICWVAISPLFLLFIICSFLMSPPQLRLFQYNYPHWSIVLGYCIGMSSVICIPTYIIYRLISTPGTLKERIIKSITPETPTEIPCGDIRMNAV

Inhibition of 5HT uptake in % (5-HT transporter): 43%
Compound: Cc1cccc(C(c2cccn2CCCO)N2CCCCC2)c1 (centres unmarked) [Example 30, 3-[2-(Piperidin-1-yl-m-tolyl-methyl)-pyrrol-1-yl]-propan-1-ol]

Inhibition of 5HT uptake in % (5-HT transporter): 42%
Compound: Cn1cccc1C(c1ccc(F)cc1)N1CCCCC1 (centres unmarked) [Example 32, 1-[(4-Fluoro-phenyl)-(1-methyl-1H-pyrrol-2-yl)-methyl]-piperidine]

Inhibition of 5HT uptake in % (5-HT transporter): 43%
Compound: Brc1cccc(C(c2cccn2Cc2ccccn2)N2CCCC2)c1 (centres unmarked) [Example 35, 2-{2-[(3-Bromo-phenyl)-pyrrolidin-1-yl-methyl]-pyrrol-1-ylmethyl}-pyridine]

Inhibition of 5HT uptake in % (5-HT transporter): 63%
Compound: Fc1ccc(C(c2cccn2Cc2ccccn2)N2CCCC2)cc1Br (centres unmarked) [Example 36, 2-{2-[(3-Bromo-4-fluoro-phenyl)-pyrrolidin-1-yl-methyl]-pyrrol-1-ylmethyl}-pyridine]

Inhibition of 5HT uptake in % (5-HT transporter): 39%
Compound: Fc1cccc(Cl)c1C(c1cccn1Cc1ccccn1)N1CCCC1 (centres unmarked) [Example 37, 2-{2-[(2-Chloro-6-fluoro-phenyl)-pyrrolidin-1-yl-methyl]-pyrrol-1-ylmethyl}-pyridine]

Inhibition of 5HT uptake in % (5-HT transporter): 45%
Compound: N#Cc1ccc(C(c2cccn2Cc2ccccn2)N2CCCC2)cc1 (centres unmarked) [Example 38, 4-[(1-Pyridin-2-ylmethyl-1H-pyrrol-2-yl)-pyrrolidin-1-yl-methyl]-benzonitrile]

Inhibition of 5HT uptake in % (5-HT transporter): 37%
Compound: Fc1ccc(-n2cccc2C(c2ccc(F)c(Br)c2)N2CCCC2)cc1 (centres unmarked) [Example 39, 2-[(3-Bromo-4-fluoro-phenyl)-pyrrolidin-1-yl-methyl]-1-(4-fluoro-phenyl)-1H-pyrrole]

Inhibition of 5HT uptake in % (5-HT transporter): 41%
Compound: NC(=S)c1ccccc1-n1cccc1C(c1cc(Br)ccc1F)N1CCCC1 (centres unmarked) [Example 41, 2-{2-[(5-Bromo-2-fluoro-phenyl)-pyrrolidin-1-yl-methyl]-pyrrol-1-yl}-thiobenzamide]

More lines, now with the values behind:

Compound: Cn1cccc1C(c1ccccc1)N1CCCC1 (centres unmarked) [Example 15, 1-Methyl-2-(phenylpyrrolidin-1-yl-methyl)-1H-pyrrole]
Inhibition of the Writhing reaction in % [1]: 87%

Compound: CN(C)C(c1ccccc1)c1cccn1C (centres unmarked) [Example 16, Dimethyl-[(1-methyl-1H-pyrrol-2-yl)-phenylmethyl]-amine]
Inhibition of the Writhing reaction in % [1]: 17%

Compound: N#CCCn1cccc1C(c1ccccc1F)N1CCCCC1 (centres unmarked) [Example 22, 3-{2-[(2-Fluoro-phenyl)-piperidin-1-yl-methyl]-pyrrol-1-yl}-propionitrile]
Inhibition of 5HT uptake in % (5-HT transporter): 83%

Compound: Brc1ccc(C(c2cccn2-c2ccccc2)N2CCCC2)cc1 (centres unmarked) [Example 23, 2-[(4-Bromo-phenyl)-pyrrolidin-1-yl-methyl]-1-phenyl-1H-pyrrole]
Inhibition of 5HT uptake in % (5-HT transporter): 57%

Compound: Cc1cccc(C(c2cccn2-c2ccccc2N)N2CCCCC2)c1 (centres unmarked) [Example 24, 2-[2-(Piperidin-1-yl-m-tolyl-methyl)-pyrrol-1-yl]-phenylamine]
Inhibition of 5HT uptake in % (5-HT transporter): 59%

Compound: Fc1cc(Br)ccc1C(c1cccn1Cc1ccccn1)N1CCCC1 (centres unmarked) [Example 25, 2-{2-[(4-Bromo-2-fluoro-phenyl)-pyrrolidin-1-yl-methyl]-pyrrol-1-ylmethyl}-pyridine]
Inhibition of 5HT uptake in % (5-HT transporter): 52%

Compound: c1ccc(Oc2cccc(C(c3cccn3Cc3ccccn3)N3CCCCC3)c2)cc1 (centres unmarked) [Example 26, 2-{2-[(3-Phenoxy-phenyl)-piperidin-1-yl-methyl]-pyrrol-1-ylmethyl}-pyridine]
Inhibition of 5HT uptake in % (5-HT transporter): 71%

Compound: NC(=S)c1ccccc1-n1cccc1C(c1cccc(Oc2ccccc2)c1)N1CCCCC1 (centres unmarked) [Example 27, 2-{2-[(3-Phenoxy-phenyl)-piperidin-1-yl-methyl]-pyrrol-1-yl}-thiobenzamide]
Inhibition of 5HT uptake in % (5-HT transporter): 44%

Compound: Fc1ccc(C(c2cccn2CCCl)N2CCCCC2)cc1 (centres unmarked) [Example 28, 1-[[1-(2-Chloro-ethyl)-1H-pyrrol-2-yl]-(4-fluoro-phenyl)-methyl]-piperidine]
Inhibition of 5HT uptake in % (5-HT transporter): 40%

Compound: OCCn1cccc1C(c1cccc(Oc2ccccc2)c1)N1CCCCC1 (centres unmarked) [Example 29, 2-{2-[(3-Phenoxy-phenyl)-piperidin-1-yl-methyl]-pyrrol-1-yl}-ethanol]
Inhibition of 5HT uptake in % (5-HT transporter): 48%

Compound: OCCCn1cccc1C(c1ccc(F)cc1)N1CCCCC1 (centres unmarked) [Example 31, 3-{2-[(4-Fluoro-phenyl)-piperidin-1-yl-methyl]-pyrrol-1-yl}-propan-1-ol]
Inhibition of 5HT uptake in % (5-HT transporter): 50%

Compound: Cn1cccc1C(c1ccc(C(F)(F)F)cc1)N1CCCCC1 (centres unmarked) [Example 33, 1-[(1-Methyl-1H-pyrrol-2-yl)-(4-trifluoromethyl-phenyl)-methyl]-piperidine]
Inhibition of 5HT uptake in % (5-HT transporter): 55%

Compound: Nc1ccccc1-n1cccc1C(c1c(F)cccc1Cl)N1CCCC1 (centres unmarked) [Example 34, 2-{2-[(2-Chloro-6-fluoro-phenyl)-pyrrolidin-1-yl-methyl]-pyrrol-1-yl}-phenylamine]
Inhibition of 5HT uptake in % (5-HT transporter): 39%

Compound: O=C(O)c1ccccc1-n1cccc1C(c1cc(Br)ccc1F)N1CCCC1 (centres unmarked) [Example 40, 2-{2-[(5-Bromo-2-fluoro-phenyl)-pyrrolidin-1-yl-methyl]-pyrrol-1-yl}-benzoic acid]
Inhibition of 5HT uptake in % (5-HT transporter): 51%

Compound: CC(C)(C)c1ccc(C(c2cccn2C(C)(C)C)N2CCCC2)cc1 (centres unmarked) [Example 42, 1-tert-Butyl-2-[(4-tert-butyl-phenyl)-pyrrolidin-1-yl-methyl]-1H-pyrrole]
Inhibition of 5HT uptake in % (5-HT transporter): 53%
